From publication PMC2721901 (Molecular cell, 2009)

Key:
Type in all cases: biochemical
ISW2 [1] = target: T1, ISW2 (Saccharomyces cerevisiae, UniProt Q08773); assay: nucleosome mobilization, native gel shift; details: 70N0 nucleosomes, 90 or 800 µM ATP, 5 mM MgCl2, pH 7.6, 20°C
ISW1a = ISW1a (Saccharomyces cerevisiae, UniProt P38144); assay: nucleosome mobilization, native gel shift; details: 70N0 nucleosomes, 90 or 800 µM ATP, 5 mM MgCl2, pH 7.6, 20°C
ISW2 [2] = target: T1, ISW2; assay: competitive inhibitor assay against ATP; details: competitive with ATP at active site

T1 sequence (Q08773 whole entry): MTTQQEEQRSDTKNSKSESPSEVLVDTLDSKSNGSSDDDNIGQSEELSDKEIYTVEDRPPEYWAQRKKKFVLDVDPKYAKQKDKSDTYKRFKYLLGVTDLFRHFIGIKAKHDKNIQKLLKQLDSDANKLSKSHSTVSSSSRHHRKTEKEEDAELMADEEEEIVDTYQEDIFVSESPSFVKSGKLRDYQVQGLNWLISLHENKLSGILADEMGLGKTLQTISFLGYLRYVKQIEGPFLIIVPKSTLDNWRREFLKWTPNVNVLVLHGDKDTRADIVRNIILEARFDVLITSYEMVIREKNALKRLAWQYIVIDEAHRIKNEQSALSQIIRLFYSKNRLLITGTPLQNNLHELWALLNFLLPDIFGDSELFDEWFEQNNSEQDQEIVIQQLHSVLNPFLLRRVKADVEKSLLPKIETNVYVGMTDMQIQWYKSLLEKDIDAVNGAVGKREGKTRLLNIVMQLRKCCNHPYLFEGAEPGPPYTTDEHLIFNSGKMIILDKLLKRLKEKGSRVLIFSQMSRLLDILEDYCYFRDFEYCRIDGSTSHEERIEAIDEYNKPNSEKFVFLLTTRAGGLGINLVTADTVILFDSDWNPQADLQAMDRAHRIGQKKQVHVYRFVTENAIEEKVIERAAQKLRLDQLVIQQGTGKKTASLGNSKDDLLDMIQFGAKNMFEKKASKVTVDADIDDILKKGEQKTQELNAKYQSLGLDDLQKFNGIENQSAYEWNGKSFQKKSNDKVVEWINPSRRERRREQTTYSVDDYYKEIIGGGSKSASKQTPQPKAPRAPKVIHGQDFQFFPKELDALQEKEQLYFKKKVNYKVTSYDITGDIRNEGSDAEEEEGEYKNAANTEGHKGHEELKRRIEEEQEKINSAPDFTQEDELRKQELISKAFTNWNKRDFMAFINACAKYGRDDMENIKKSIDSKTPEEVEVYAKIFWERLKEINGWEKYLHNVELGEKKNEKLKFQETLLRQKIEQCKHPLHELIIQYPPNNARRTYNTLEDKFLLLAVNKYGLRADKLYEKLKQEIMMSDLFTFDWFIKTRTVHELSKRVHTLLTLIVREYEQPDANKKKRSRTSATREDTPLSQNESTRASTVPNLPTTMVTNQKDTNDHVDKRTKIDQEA
T1 sequence (P53125 whole entry partner): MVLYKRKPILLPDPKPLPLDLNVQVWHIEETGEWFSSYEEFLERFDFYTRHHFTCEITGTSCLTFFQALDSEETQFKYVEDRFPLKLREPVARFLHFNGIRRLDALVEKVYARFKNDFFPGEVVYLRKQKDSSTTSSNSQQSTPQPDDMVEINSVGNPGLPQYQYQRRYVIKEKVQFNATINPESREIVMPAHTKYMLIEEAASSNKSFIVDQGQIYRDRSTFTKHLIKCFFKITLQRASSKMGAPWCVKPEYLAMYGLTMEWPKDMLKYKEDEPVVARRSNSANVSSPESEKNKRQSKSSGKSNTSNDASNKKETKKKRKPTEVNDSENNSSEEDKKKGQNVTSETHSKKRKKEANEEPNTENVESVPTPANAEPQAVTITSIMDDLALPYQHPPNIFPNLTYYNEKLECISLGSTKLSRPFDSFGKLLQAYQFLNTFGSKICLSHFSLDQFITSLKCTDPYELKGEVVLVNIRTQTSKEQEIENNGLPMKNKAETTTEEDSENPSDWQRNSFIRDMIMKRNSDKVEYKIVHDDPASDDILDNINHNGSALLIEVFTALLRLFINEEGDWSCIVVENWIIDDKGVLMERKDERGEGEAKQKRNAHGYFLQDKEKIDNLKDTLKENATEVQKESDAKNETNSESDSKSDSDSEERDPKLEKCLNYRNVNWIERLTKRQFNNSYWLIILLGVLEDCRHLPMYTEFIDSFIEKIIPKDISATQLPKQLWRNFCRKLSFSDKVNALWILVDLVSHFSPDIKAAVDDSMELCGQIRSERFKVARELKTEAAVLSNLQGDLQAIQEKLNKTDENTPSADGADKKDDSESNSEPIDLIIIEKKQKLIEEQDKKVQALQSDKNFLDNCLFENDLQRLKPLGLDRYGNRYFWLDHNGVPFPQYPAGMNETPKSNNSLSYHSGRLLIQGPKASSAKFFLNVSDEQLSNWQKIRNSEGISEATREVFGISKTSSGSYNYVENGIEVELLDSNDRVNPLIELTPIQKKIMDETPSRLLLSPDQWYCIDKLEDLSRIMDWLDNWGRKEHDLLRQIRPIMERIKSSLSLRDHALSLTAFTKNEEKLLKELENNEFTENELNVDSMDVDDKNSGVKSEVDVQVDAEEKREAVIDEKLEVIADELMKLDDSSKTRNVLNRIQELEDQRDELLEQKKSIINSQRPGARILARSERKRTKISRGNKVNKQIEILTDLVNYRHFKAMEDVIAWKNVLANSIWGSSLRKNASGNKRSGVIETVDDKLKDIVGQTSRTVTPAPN
T1 sequence (Q04603 whole entry partner): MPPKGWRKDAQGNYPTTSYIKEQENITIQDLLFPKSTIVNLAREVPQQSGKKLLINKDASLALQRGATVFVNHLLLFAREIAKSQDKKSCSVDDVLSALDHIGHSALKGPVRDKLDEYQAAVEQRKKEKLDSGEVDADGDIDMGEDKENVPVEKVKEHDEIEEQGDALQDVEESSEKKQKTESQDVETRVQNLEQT
T1 sequence (P40366 whole entry partner): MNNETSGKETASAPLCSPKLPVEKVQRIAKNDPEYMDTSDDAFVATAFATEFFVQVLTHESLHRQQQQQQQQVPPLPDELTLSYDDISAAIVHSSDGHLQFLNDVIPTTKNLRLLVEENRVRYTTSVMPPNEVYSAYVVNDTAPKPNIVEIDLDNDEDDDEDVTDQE
Sequence of ISW1a (P38144 whole entry): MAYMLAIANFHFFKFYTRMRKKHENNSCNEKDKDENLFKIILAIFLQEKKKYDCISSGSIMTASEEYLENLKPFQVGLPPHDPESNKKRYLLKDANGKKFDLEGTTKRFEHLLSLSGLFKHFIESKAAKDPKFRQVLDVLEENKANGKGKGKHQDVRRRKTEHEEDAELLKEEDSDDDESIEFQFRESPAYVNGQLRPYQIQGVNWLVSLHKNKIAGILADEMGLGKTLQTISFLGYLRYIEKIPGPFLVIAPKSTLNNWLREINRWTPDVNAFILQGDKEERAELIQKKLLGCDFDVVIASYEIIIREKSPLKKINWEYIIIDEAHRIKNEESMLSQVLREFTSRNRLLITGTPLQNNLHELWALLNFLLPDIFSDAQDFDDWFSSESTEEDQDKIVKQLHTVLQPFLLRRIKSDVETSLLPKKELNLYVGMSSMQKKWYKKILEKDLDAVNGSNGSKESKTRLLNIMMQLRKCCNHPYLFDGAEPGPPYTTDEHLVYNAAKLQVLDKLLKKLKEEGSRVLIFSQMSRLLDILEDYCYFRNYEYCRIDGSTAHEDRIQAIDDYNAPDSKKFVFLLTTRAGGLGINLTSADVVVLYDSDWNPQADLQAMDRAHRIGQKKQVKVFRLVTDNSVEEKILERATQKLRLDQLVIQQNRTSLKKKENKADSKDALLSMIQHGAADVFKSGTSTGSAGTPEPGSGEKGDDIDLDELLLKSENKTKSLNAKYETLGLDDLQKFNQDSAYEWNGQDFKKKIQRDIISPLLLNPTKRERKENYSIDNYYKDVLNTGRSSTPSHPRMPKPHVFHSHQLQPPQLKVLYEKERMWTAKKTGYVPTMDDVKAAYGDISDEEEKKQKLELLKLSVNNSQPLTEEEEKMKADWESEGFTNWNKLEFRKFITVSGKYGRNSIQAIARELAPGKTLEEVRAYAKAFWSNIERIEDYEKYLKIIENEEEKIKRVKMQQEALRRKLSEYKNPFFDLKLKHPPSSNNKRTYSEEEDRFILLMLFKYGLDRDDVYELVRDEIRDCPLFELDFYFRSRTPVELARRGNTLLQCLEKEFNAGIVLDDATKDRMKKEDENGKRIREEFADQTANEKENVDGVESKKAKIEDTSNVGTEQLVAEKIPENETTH
Sequence of ISW1a (P43596 whole entry partner): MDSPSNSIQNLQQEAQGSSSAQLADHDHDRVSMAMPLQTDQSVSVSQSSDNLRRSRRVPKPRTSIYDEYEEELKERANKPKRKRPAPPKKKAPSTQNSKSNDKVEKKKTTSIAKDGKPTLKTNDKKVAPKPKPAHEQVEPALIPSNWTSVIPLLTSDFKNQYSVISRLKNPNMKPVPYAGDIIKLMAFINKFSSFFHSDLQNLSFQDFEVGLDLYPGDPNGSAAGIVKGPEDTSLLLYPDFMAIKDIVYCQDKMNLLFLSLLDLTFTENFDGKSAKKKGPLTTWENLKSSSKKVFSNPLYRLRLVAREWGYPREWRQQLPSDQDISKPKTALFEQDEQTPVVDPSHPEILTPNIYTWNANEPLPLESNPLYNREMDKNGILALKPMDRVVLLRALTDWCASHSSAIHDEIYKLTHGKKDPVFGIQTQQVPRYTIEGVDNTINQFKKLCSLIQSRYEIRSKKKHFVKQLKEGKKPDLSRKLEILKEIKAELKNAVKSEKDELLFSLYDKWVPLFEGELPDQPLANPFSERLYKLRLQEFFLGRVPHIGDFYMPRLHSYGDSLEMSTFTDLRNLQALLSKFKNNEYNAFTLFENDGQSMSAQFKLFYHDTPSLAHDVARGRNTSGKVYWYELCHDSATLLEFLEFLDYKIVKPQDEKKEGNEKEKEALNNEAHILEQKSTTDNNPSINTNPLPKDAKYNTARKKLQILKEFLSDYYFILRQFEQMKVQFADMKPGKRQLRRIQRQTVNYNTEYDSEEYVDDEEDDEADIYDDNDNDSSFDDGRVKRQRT

## Nc1ncnc2c1ncn2[C@@H]1O[C@H](COP(=O)(O)OP(=O)(O)OP(=O)(O)O)[C@@H](O)[C@H]1O [ATP]
ISW2 [1]
  nucleosome mobilization, native gel shift: Template commitment of ISW2 required initiation of the remodeling process rather than just ISW2 binding
ISW1a
  nucleosome mobilization, native gel shift: ATP was found to be required for template commitment by ISW1a

## Nc1ncnc2c1ncn2[C@@H]1O[C@H](COP(=O)(O)OP(=O)(O)O)[C@@H](O)[C@H]1O [ADP]
ISW2 [2]
  competitive inhibitor assay against ATP: ADP and γ-S-ATP were shown to be bound at the active site of ISW2
